From publication PMC8773529 (Cancers, 2022)

How the values were obtained:
Assay type in all cases: cell-based, human
LNCaP cells [1] = test: MTT assay, LNCaP; settings: for IC50: 72 h, MTT, mean ± SD; for SI LNCaP: SI = IC50 normal cell line (RWPE-1)/IC50 cancer cell line
Procedure: (§1) MTT analysis was performed as described previously.
(§2) Cell absorbance results were substituted into the formula for the relative MTT level (%). It allows to calculate the viability of cells exposed to the test compounds. Cell viability is the percentage of MTT reduction in cells to which the test compounds were added compared to the control sample, where only the medium was added to the cells.
(§3) The relative MTT level was calculated using the formula: life time [100%] = A/B × 100% where: A—the test sample absorbance; B—the control sample absorbance.
(§4) The statistical analysis was performed using the Statistica 13.0 (StatSoft, Inc, Tulsa, OK, USA) program. Comparison between studied groups was performed by the paired Student’s t-test. Results were expressed as means ± SD, and considered statistically significant at p < 0.05. All data were calculated from 3 separate experiments. IC50 values were calculated using GraphPad Prism 6 software (GraphPad Software, San Diego, CA, USA).

DU-145 cells [2] = test: MTT assay, DU-145; settings: for IC50: MTT, 72 h, mean ± SD; for SI DU-145: SI = IC50 normal cell line (RWPE-1)/IC50 cancer cell line
Procedure: as §1, §2, §3, §4

RWPE-1 cells [3] = test: MTT assay, normal RWPE-1; settings: mean ± SD
Procedure: as §1, §2, §3, §4

LNCaP cells [4] = test: LDH test, LNCaP; settings: 72 h; tested at 10-60 µM, concentration of quoted value not stated
Procedure: (§5) Lactate dehydrogenase (LDH) as a cytosolic enzyme determined in culture medium is a marker of cell death. The LDH activity determination was performed after 72 h incubation of cells (1 × 10^4 cells per well) in 96-well plates with the selected conjugates of gradually decreasing concentration according to the procedure mentioned at earlier study by Chrzanowska et al.. The cytotoxicity of test compounds was expressed as % of LDH released from test cells. This parameter is calculated using the formula: cytotoxicity = [A test sample − A “low control”]/[A “high control” − A “low control”] where: A—absorbance, “Low control”—cells in DMEM medium with 2% FBS, “High control”—cells in DMEM with 2% FBS with 1% Triton X-100.

DU145 cells = test: LDH test, DU145; settings: 72 h; tested at 10-60 µM, concentration of quoted value not stated
Procedure: as §5

RWPE-1 cells [5] = test: Apoptosis detection (Annexin V/7-AAD flow cytometry), RWPE-1; settings: IC50 concentration, 72 h, % of cells
Procedure: (§6) Then, a commercially available kit (FITC:Annexin V Apoptosis Detection Kit I; BD Biosciences Pharmingen. San Jose, CA, USA) was used. The medium was removed from the plates and approximately 1 mL of PBS was added to the wells for rinsing, followed by 0.7 mL of trypsin, and left for 3 min. Then, the plate wells were washed twice with 0.5 mL PBS with 2% FBS and next the entire content of the given walls was transferred to test tubes. The tubes were centrifuged for 7 min in a centrifuge at 1700 rpm. The supernatant solution was removed. […] After this time, 0.4 mL of PBS with FBS was added to the tubes and mixed again. […] Annexin V-reactive cells, but not 7-AAD-reactive cells were in the early stage of apoptosis, while cells reactive with both reagents were in late-stage apoptosis or were dead.

LNCaP cells [6] = test: Apoptosis detection (Annexin V/7-AAD flow cytometry), LNCaP; settings: IC50 concentration, 72 h, % of cells
Procedure: as §6

DU-145 cells [7] = test: Apoptosis detection (Annexin V/7-AAD flow cytometry), DU-145; settings: IC50 concentration, 72 h, % of cells
Procedure: as §6

[8] = system: IL-6 release by LNCaP cells; test: Interleukin-6 ELISA, LNCaP; settings: IC50 concentration, 72 h; control 40.1 pg/mL
Procedure: (§7) The sandwich ELISA assay is used to confirm the presence of interleukin 6 (IL-6) in the test cell line supernatant. Interleukin IL-6 ELISA kit was purchased from Diaclone SAS (Besancon Cedex, France). […] Before starting the test, a standard curve was prepared. An amount of 100 μL of test supernatant samples from the RWPE-1, LNCaP and DU145 cell lines incubated with the tested compounds, control solutions and blank were added to the plate’s wells. Then, 50 µL of diluted biotinylated anti-human interleukin-6 antibody was added to each well. The prepared plate was incubated at room temperature for one hour. At the end of this time, the solution in the plate wells was decanted and rinsed with the washing solution. After repeating the procedure three times, 100 μL solution of streptavidin covalently bound to horseradish peroxidase (HRP) was added to the wells. Then, the plates were incubated for 30 min. The next step was to remove the solution and rinse the plates three times. After adding 100 μL of tetramethylbenzidine (TMB) solution to each well, the plates were incubated for 15 min in the dark. In order to stop the reaction, 100 μL of H2SO4 solution were added. The absorbance of the tested samples was read using a spectrophotometer at 450 nm (Microplate Spectrophotometer Thermo Scientific™ Multiskan™ GO).

[9] = system: IL-6 release by DU145 cells; test: Interleukin-6 ELISA, DU145; settings: IC50 concentration, 72 h; control 134.475 pg/mL
Procedure: as §7

PC3 cells = test: MTT assay, PC3; settings: SI = IC50 normal cell line (RWPE-1)/IC50 cancer cell line
Procedure: as §1, §2, §3, §4

SMILES | IC50 (LNCaP cells [1]; Homo sapiens, LNCaP) [µM] | IC50 (LNCaP cells [1]) [µM] | IC50 (DU-145 cells [2]; Homo sapiens, DU-145, 72 h) [µM] | IC50 (DU-145 cells [2]) [µM] | IC50 (RWPE-1 cells [3]; Homo sapiens, RWPE-1, 72 h) [µM] | released lactate dehydrogenase, LNCaP (LNCaP cells [4]) | released lactate dehydrogenase, DU145 (DU145 cells) | Early Apoptosis (%), RWPE-1 (RWPE-1 cells [5]) [%] | Late apoptosis (%), RWPE-1 (RWPE-1 cells [5]) [%] | Early Apoptosis (%), LNCaP (LNCaP cells [6]) [%] | Late apoptosis (%), LNCaP (LNCaP cells [6]) | Late apoptosis (%), LNCaP (LNCaP cells [6]; listed as CP) [%] | Early Apoptosis (%), DU145 (DU-145 cells [7]) [%] | Late apoptosis (%), DU145 (DU-145 cells [7]) [%] | IL-6 concentration, LNCaP [8] [pg/mL] | IL-6 concentration, DU145 [9] [pg/mL] | SI LNCaP (LNCaP cells [1]) | SI DU-145 (DU-145 cells [2]) | SI PC3 (PC3 cells) | IC50 (RWPE-1 cells [3]; 72 h) [µM]
O=C(O)c1cn(C2CC2)c2cc(N3CCNCC3)c(F)cc2c1=O [Ciprofloxacin] | > 70 | 71.2 ± 3.8 | > 70 | 70.5 ± 3.6 | 72.1 ± 5.2 | 18.5–24.6% | 18.5–24.6% | 2.9 | 1.4 | 26.8 | did not affect the late apoptosis | 0.7 | 20.8 | 0.3 | 28.7 | 119.72 |  |  |  | 
N.N.[Cl][Pt][Cl] [Cisplatin] |  | 1.78 ± 0.74 |  | 1.36 ± 0.69 |  |  |  |  |  |  |  |  |  |  |  |  | 1.5 | 2 | 1.78 | 2.69 ± 1.1
COc1cccc2c1C(=O)c1c(O)c3c(c(O)c1C2=O)C[C@@](O)(C(=O)CO)C[C@@H]3O[C@H]1C[C@H](N)[C@H](O)[C@H](C)O1 [Doxorubicin] | 0.48 ± 0.21 |  | 0.59 ± 0.14 |  | 0.65 ± 0.1 |  |  |  |  |  |  |  |  |  |  |  | 1.3 | 1.1 | 2 | 
